Experimental data from ChEMBL document CHEMBL2069259, “Preclinical strategy to reduce clinical hepatotoxicity using in vitro bioactivation data for >200 compounds” (Chem Res Toxicol, 2012).

Columns and labels:
Liver microsomes [1] = conditions: human, 1.5 h, 100 µM
Liver microsomes [2] = experiment: Metabolic stability in human liver microsomes assessed as high signal/noise ratio (S/N of >100) by measuring GSH adduct formation at 100 uM after 90 mins by HPLC-MS analysis; conditions: 1.5 h
CYP2C19 = CYP2C19 (Homo sapiens, UniProt P33261); experiment: Inhibition of human CYP2C19 assessed as ratio of IC50 in absence of NADPH to IC50 for presence of NADPH using 3-butyryl-7-methoxycoumarin as substrate after 30 mins
Liver microsomes [3] = experiment: Metabolic stability in human liver microsomes assessed as GSH adduct formation at 100 uM after 90 mins by HPLC-MS analysis; conditions: 1.5 h
CYP3A4 [4] = biological target: T1, CYP3A4 (Homo sapiens, UniProt P08684); experiment: Inhibition of human CYP3A4 assessed as ratio of IC50 in absence of NADPH to IC50 for presence of NADPH using diethoxyfluorescein as substrate after 30 mins
CYP3A4 [5] = biological target: T1, CYP3A4; experiment: Inhibition of human CYP3A4 assessed as ratio of IC50 in absence of NADPH to IC50 for presence of NADPH using 7-benzyloxyquinoline as substrate after 30 mins; conditions: probe 7-benzyloxyquinoline
[6] = probe 3-butyryl-7-methoxycoumarin

T1 sequence (P08684 whole entry): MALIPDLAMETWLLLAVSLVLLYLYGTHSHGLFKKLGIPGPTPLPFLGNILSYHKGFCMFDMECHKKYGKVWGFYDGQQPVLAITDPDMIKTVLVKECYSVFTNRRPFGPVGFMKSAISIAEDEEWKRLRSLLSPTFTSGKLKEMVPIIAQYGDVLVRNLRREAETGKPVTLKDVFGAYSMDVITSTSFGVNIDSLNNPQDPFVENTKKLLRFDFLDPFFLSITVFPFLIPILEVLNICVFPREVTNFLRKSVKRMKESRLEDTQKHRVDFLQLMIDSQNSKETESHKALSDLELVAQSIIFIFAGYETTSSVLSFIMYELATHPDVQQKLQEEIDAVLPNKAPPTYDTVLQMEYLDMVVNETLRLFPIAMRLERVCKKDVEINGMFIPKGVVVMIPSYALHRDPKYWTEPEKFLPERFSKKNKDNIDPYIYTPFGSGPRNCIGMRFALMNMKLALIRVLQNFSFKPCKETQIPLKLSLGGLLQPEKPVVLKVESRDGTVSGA
Sequence of CYP2C19 (P33261 whole entry): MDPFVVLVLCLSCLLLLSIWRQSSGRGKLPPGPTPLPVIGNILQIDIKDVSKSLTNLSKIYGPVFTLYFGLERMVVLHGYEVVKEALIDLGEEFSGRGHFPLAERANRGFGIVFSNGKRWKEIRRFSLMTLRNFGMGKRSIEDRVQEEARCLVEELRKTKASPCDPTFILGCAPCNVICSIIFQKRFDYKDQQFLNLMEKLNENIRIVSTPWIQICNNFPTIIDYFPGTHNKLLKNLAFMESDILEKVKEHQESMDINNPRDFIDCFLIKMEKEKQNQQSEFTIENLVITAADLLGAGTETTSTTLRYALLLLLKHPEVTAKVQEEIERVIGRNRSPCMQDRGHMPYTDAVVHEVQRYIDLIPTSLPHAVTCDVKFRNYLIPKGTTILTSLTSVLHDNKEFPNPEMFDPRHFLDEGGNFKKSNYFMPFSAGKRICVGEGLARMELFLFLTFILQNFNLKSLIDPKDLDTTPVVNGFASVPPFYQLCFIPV

Compound	Stability (Liver microsomes [1])	Stability (Liver microsomes [2])	also measured
O=c1ccc2ccccc2o1 [COUMARIN]	Unstable	–	–
CC(=O)[C@@]1(O)CC[C@H]2[C@@H]3C=C(Cl)C4=CC(=O)[C@@H]5C[C@@H]5[C@]4(C)[C@H]3CC[C@@]21C [CYPROTERONE]	–	Unstable	–
COc1ccccc1OCC(O)COC(N)=O (stereo unspecified) [METHOCARBAMOL]	–	–	IC50 shift at 0.5 h (CYP2C19; [6]): < 2; Stability (Liver microsomes [3]): Stable
CCCCC1C(=O)N(c2ccccc2)N(c2ccc(O)cc2)C1=O (stereo unspecified) [OXYPHENBUTAZONE ANHYDROUS]	–	Unstable	–
C[C@H]1[C@H](NC(=O)/C(=N\OC(C)(C)C(=O)O)c2csc(N)n2)C(=O)N1S(=O)(=O)O [AZTREONAM]	–	Unstable	–
COc1ccc2[nH]c([S+]([O-])Cc3ncc(C)c(OC)c3C)nc2c1 (stereo unspecified) [OMEPRAZOLE]	–	Unstable	IC50 shift at 0.5 h (CYP2C19): < 2; IC50 shift at 0.5 h (CYP3A4 [4]): 2
C[C@@H](O)[C@H]1C(=O)N2C(C(=O)O)=C(S[C@@H]3CN[C@H](C(=O)N(C)C)C3)[C@H](C)[C@H]12 [MEROPENEM]	–	Unstable	–
CN(C)/N=N/c1[nH]cnc1C(N)=O [DACARBAZINE]	–	Unstable	–
CO[C@H]1C[C@H](O[C@H]2[C@H](C)[C@@H](O[C@@H]3O[C@H](C)C[C@H](N(C)C)[C@H]3OC(C)=O)[C@@H](C)C[C@@]3(CO3)C(=O)[C@H](C)[C@@H](OC(C)=O)[C@@H](C)[C@@H](C)OC(=O)[C@@H]2C)O[C@@H](C)[C@@H]1OC(C)=O [TROLEANDOMYCIN]	–	Unstable	–
CC(C(=O)O)c1ccc(N2CC=CC2)c(Cl)c1 (stereo unspecified) [PIRPROFEN]	Unstable	–	–
CS(=O)(=O)OCCCCOS(C)(=O)=O [BUSULFAN]	–	Unstable	–
C=C[C@H]1C[N@@]2CC[C@H]1C[C@@H]2[C@@H](O)c1ccnc2ccc(OC)cc12 [QUINIDINE]	–	Unstable	–
Cc1coc2c1CCC(C)C2 (stereo unspecified) [MENTHOFURAN]	–	–	IC50 shift at 0.5 h (CYP2C19; [6]): < 2
CCC(C)(C)C(=O)O[C@H]1C[C@@H](C)C=C2C=C[C@H](C)[C@H](CC[C@@H]3C[C@@H](O)CC(=O)O3)[C@H]21 [SIMVASTATIN]	–	Unstable	–
NC(=O)N1c2ccccc2C=Cc2ccccc21 [CARBAMAZEPINE]	–	Unstable	–
CN(C)[C@@H]1C(O)=C(C(N)=O)C(=O)[C@@]2(O)C(O)=C3C(=O)c4c(O)cccc4[C@@](C)(O)[C@H]3C[C@@H]12 [TETRACYCLINE]	Unstable	–	–
CN(C)CCC=C1c2ccccc2CCc2ccccc21 [AMITRIPTYLINE]	–	Unstable	IC50 shift at 0.5 h (CYP2C19; [6]): < 2
C[C@@H]1[C@H](O)[C@@H](C)/C=C/C=C/C=C/C=C/C=C/C=C/C=C/[C@H](O[C@@H]2O[C@H](C)[C@@H](O)[C@H](N)[C@@H]2O)C[C@@H]2O[C@](O)(C[C@@H](O)C[C@@H](O)[C@H](O)CC[C@@H](O)C[C@@H](O)CC(=O)O[C@H]1C)C[C@H](O)[C@H]2C(=O)O [AMPHOTERICIN B]	–	–	IC50 shift at 0.5 h (CYP2C19; [6]): < 2; Stability (Liver microsomes [3]): Stable
CCc1ccc(CCOc2ccc(CC3SC(=O)NC3=O)cc2)nc1 (stereo unspecified) [PIOGLITAZONE]	Unstable	–	–

Compound	Stability (Liver microsomes [1])	Stability (Liver microsomes [2])	also measured
CC1(C)O[C@@H]2C[C@H]3[C@@H]4C[C@H](F)C5=CC(=O)C=C[C@]5(C)[C@H]4[C@@H](O)C[C@]3(C)[C@]2(C(=O)CO)O1 [FLUNISOLIDE]	–	Unstable	–
NNc1nncc2ccccc12 [HYDRALAZINE]	Unstable	–	–
Cn1cnc([N+](=O)[O-])c1Sc1ncnc2nc[nH]c12 [AZATHIOPRINE]	–	Unstable	–
C[C@]12CC[C@@H]3c4ccc(O)cc4CC[C@H]3[C@@H]1CC[C@@H]2O [ESTRADIOL]	–	Unstable	IC50 shift at 0.5 h (CYP3A4 [4]; probe diethoxyfluorescein): < 2
COc1cc([C@@H]2c3cc4c(cc3[C@@H](O[C@@H]3O[C@@H]5CO[C@@H](C)O[C@H]5[C@H](O)[C@H]3O)[C@H]3COC(=O)[C@H]23)OCO4)cc(OC)c1O [ETOPOSIDE]	–	Unstable	–
O=P1(N(CCCl)CCCl)NCCCO1 (stereo unspecified) [CYCLOPHOSPHAMIDE ANHYDROUS]	Unstable	–	–
COc1ncnc(NS(=O)(=O)c2ccc(N)cc2)c1OC [SULFADOXINE]	Unstable	–	–
COC(=O)C1=C(C)NC(C)=C(C(=O)OCC(C)C)C1c1ccccc1[N+](=O)[O-] (stereo unspecified) [NISOLDIPINE]	Unstable	–	–
O=C(O)[C@H]1/C(=C/CO)O[C@@H]2CC(=O)N21 [CLAVULANIC ACID]	–	Unstable	–
CO/N=C(\C(=O)N[C@@H]1C(=O)N2C(C(=O)O)=C(CSc3nc(=O)c(=O)[nH]n3C)CS[C@H]12)c1csc(N)n1 [CEFTRIAXONE]	–	Unstable	–
COc1cc(NS(C)(=O)=O)ccc1Nc1c2ccccc2nc2ccccc12 [AMSACRINE]	–	Unstable	–
CCCCC1C(=O)N(c2ccccc2)N(c2ccccc2)C1=O [PHENYLBUTAZONE]	–	Unstable	–
CC[C@H]1OC(=O)[C@H](C)[C@@H](O[C@H]2C[C@@](C)(OC)[C@@H](O)[C@H](C)O2)[C@H](C)[C@@H](O[C@@H]2O[C@H](C)C[C@H](N(C)C)[C@H]2O)[C@](C)(OC)C[C@@H](C)C(=O)[C@H](C)[C@@H](O)[C@]1(C)O [CLARITHROMYCIN]	–	–	IC50 shift at 0.5 h (CYP3A4 [4]; probe diethoxyfluorescein): > 5; IC50 shift at 0.5 h (CYP3A4 [5]): > 5; Stability (Liver microsomes [3]): Stable
CC(C)NNC(=O)c1ccncc1 [IPRONIAZID]	–	–	IC50 shift at 0.5 h (CYP3A4 [4]; probe diethoxyfluorescein): > 5; Stability (Liver microsomes [3]): Stable
Cc1cccc(C)c1NC(=O)C1CCCCN1C (stereo unspecified) [MEPIVACAINE]	–	–	IC50 shift at 0.5 h (CYP3A4 [4]; probe diethoxyfluorescein): 2; IC50 shift at 0.5 h (CYP3A4 [5]): 2; Stability (Liver microsomes [3]): Stable
O=C(O)Cc1ccccc1Nc1c(Cl)cccc1Cl [DICLOFENAC]	Unstable	–	–
O=C(O)c1cc(/N=N/c2ccc(S(=O)(=O)Nc3ccccn3)cc2)ccc1O [SULFASALAZINE]	–	–	IC50 shift at 0.5 h (CYP2C19; [6]): < 2; Stability (Liver microsomes [3]): Stable
CO[C@H]1/C=C/O[C@@]2(C)Oc3c(C)c(O)c4c(O)c(c(/C=N/N5CCN(C)CC5)c(O)c4c3C2=O)NC(=O)/C(C)=C\C=C\[C@H](C)[C@H](O)[C@@H](C)[C@@H](O)[C@@H](C)[C@H](OC(C)=O)[C@@H]1C [RIFAMPIN]	–	Unstable	–
CN(C)c1ccc(O)c2c1C[C@H]1C[C@H]3[C@H](N(C)C)C(O)=C(C(N)=O)C(=O)[C@@]3(O)C(O)=C1C2=O [MINOCYCLINE]	Unstable	–	–

Compound	Stability (Liver microsomes [1])	Stability (Liver microsomes [2])	also measured
Nc1ccc(C(=O)O)c(O)c1 [AMINOSALICYLIC ACID]	Unstable	–	–
CC1=C(CC(=O)O)c2cc(F)ccc2/C1=C\c1ccc([S+](C)[O-])cc1 (stereo unspecified)	Unstable	–	–
CN(C)C(=O)Oc1ccc[n+](C)c1 [PYRIDOSTIGMINE]	–	Unstable	IC50 shift at 0.5 h (CYP2C19): 2
CN/C(=N/CCSCc1nc[nH]c1C)NC#N [CIMETIDINE]	–	Unstable	–
COc1cc(C(=O)NS(=O)(=O)c2ccccc2C)ccc1Cc1cn(C)c2ccc(NC(=O)OC3CCCC3)cc12 [ZAFIRLUKAST]	–	–	IC50 shift at 0.5 h (CYP3A4 [4]; probe diethoxyfluorescein): > 5; IC50 shift at 0.5 h (CYP3A4 [5]): 2
C[C@]12CC[C@@H]3c4ccc(O)cc4CC[C@H]3[C@@H]1C[C@@H](O)[C@@H]2O [ESTRIOL]	Unstable	–	–
Cc1c(C)c2c(c(C)c1O)CCC(C)(COc1ccc(CC3SC(=O)NC3=O)cc1)O2 (stereo unspecified) [TROGLITAZONE]	Unstable	–	IC50 shift at 0.5 h (CYP3A4 [4]): 2
Cc1ccnc2c1NC(=O)c1cccnc1N2C1CC1 [NEVIRAPINE]	–	–	IC50 shift at 0.5 h (CYP3A4 [4]; probe diethoxyfluorescein): 2; Stability (Liver microsomes [3]): Stable
CN(CCOc1ccc(NS(C)(=O)=O)cc1)CCc1ccc(NS(C)(=O)=O)cc1 [DOFETILIDE]	Unstable	–	–
Cc1cn([C@H]2C=C[C@@H](CO)O2)c(=O)[nH]c1=O [STAVUDINE]	Unstable	–	–
CC[C@H](C)C(=O)O[C@H]1C[C@@H](C)C=C2C=C[C@H](C)[C@H](CC[C@@H]3C[C@@H](O)CC(=O)O3)[C@H]21 [LOVASTATIN]	Unstable	–	–
CNC1(C)C2CCC(C2)C1(C)C (stereo unspecified) [MECAMYLAMINE]	–	–	IC50 shift at 0.5 h (CYP2C19): < 2; Stability (Liver microsomes [3]): Stable
O=NN(CCCl)C(=O)NCCCl [CARMUSTINE]	Unstable	–	–
C#C[C@]1(O)CC[C@H]2[C@@H]3CCC4=Cc5oncc5C[C@]4(C)[C@H]3CC[C@@]21C [DANAZOL]	Unstable	–	IC50 shift at 0.5 h (CYP2C19): < 2
C#CCN(C)[C@H](C)Cc1ccccc1 [SELEGILINE]	–	Unstable	–
CC(=O)Oc1ccccc1C(=O)O [ASPIRIN]	–	–	IC50 shift at 0.5 h (CYP2C19): < 2; Stability (Liver microsomes [3]): Stable
CO[C@@]12[C@H](COC(N)=O)C3=C(C(=O)C(C)=C(N)C3=O)N1C[C@@H]1N[C@@H]12 [MITOMYCIN]	–	Unstable	–
Sc1ncnc2nc[nH]c12 [MERCAPTOPURINE ANHYDROUS]	–	Unstable	–
CC(C)[C@H]1CC[C@H](C(=O)N[C@H](Cc2ccccc2)C(=O)O)CC1 [NATEGLINIDE]	Unstable	–	–
